Consider five compounds from US5198445A, “Composition and use of substituted 3-thio-2-propynenitriles as industrial antimicrobials” (The Dow Chemical Company, priority 1992, dated 1993).

By minimal effective concentration is commonly meant the smallest amount tested that counted as effective.

Data set [1] relates to Bacillus subtilis (Bs). Kind of data set: MIC in nutrient agar, Bacillus subtilis. The data set is classed as cell-based, Bacillus subtilis ATCC 8473. The procedure:
(§1) The minimum inhibitory concentration (MIC) for the compounds listed in Table I is determined for 9 bacteria, using nutrient agar, and 7 yeast and fungi, using malt yeast agar. A one percent solution of the test compound is prepared in a mixture of acetone and water. Nutrient agar is prepared at pH 6.8, representing a neutral medium, and at pH 8.2, representing an alkaline medium. The nutrient agars are prepared by adding 23 g of nutrient agar to one-liter of deionized water. In addition, the alkaline medium is prepared by adjusting a 0.04M solution of N-[tris-(hydroxymethyl)methyl]-glycine buffered deionized water with concentrated sodium hydroxide to a pH of […]. Malt yeast agar is prepared by adding 3 g yeast extract and 45 g malt agar per liter of deionized water. The specific agar is dispensed in 30 ml aliquots into 25×200 mm test tubes, capped and autoclaved for 15 minutes at 115° C. The test tubes containing the agar are cooled in a water bath until the temperature of the agar is 48° C. Then, an appropriate amount of the one percent solution of the test compound is added (except in the controls where no compound is added) to the respective test tubes so that the final concentrations are 500, 250, 100, 50, 25, 10, 5, 2.5, 1.0 and zero parts per million of the test compound in the agar, thus having a known concentration of test compound dispersed therein. The contents of the test tubes are then transferred to respective petri plates. After drying for 24 hours, the petri plates containing nutrient agar are inoculated with bacteria and those containing malt yeast agar are inoculated with yeast and fungi.
(§2) The inoculation with bacteria is accomplished by using the following procedure. Twenty-four hour-cultures of each of the bacteria are prepared by incubating the respective bacteria in tubes containing nutrient broth for 24 hours at 30° C. in a shaker. Dilutions of each of the 24 hour-cultures are made so that nine separate suspensions (one for each of the nine test bacteria) are made, each containing 10^8 colony forming units (CFU) per ml of suspension of a particular bacteria. Aliquots of 0.3 ml of each of the bacterial suspensions are used to fill the individual wells of Steer's Replicator. For each microbial suspension, 0.3 ml was used to fill three wells (i.e., three wells of 0.3 ml each) so that for the nine different bacteria, 27 wells are filled. The Steer's Replicator is then used to inoculate both the neutral and alkaline pH nutrient agar petri plates.
(§3) The inoculated petri plates are incubated at 30° C. for 48 hours and then read to determine if the test compound which is incorporated into the agar prevented growth of the respective bacteria.
(§4) Table II lists the bacteria, yeast and fungi used in the MIC test described above along with their respective American Type Culture Collection (ATCC) identification numbers.
(§5) The following MIC and MEC antimicrobial tests, whose results are shown in Tables XIII-XVII, are performed using the same methods as described hereinabove.

The test system of data set [2] is mixture of the bacterial organisms listed in Table II. Kind of data set: Multiple Challenge Test in shampoo formulation. The format is cell-based, bacteria listed in Table II. The conditions noted are these: 10 challenges. The procedure: Additionally, the ability of the compounds of Table I to serve as preservatives in a variety of formulated industrial, household, and commercial products is tested using a Multiple Challenge Test Protocol. In this test, the formulations include a styrene-butadiene latex, a tape joint, a hand lotion, and a shampoo. The styrene-butadiene latex test formulation used is Latex DL 238A, available from The Dow Chemical Company. The compositions of the tape joint, hand lotion and shampoo test formulations can be found in Tables V-VII.
(§6) The formulations are separated into 50 g aliquots and placed in sterile bottles. An appropriate amount of a fresh one percent stock solution of the test compound in acetone-water is added to achieve the desired final concentrations. A small portion of each of the test formulations is streaked onto Tryptic Soy Agar (TSA) petri plates using sterile cotton swabs to ensure that the formulations are sterile. If the formulation is sterile, then it is inoculated with 0.1 ml of a mixture of equal aliquots of the 24 hour cultures of each of the bacterial organisms listed in Table II. The test formulations are then incubated at 30° C. After 24 hours, each sample is streaked onto a TSA petri plate using a sterile swab. All plates are then incubated at 30° C. for 48 hours and then rated for microbial growth using the rating system listed in Table VIII. Samples with a rating of 3 or less are reinoculated as described in the procedure for the first inoculation. Samples with a rating of 4 or greater are not reinoculated but after another 24 hours are restreaked on TSA agar.
The normal interpretation of the results is that a concentration of the antimicrobial being tested is considered to be effective if no ratings greater than a 3 are observed throughout the 10 challenges. The Minimum Effective Concentration (MEC), which is used to compare the activity of the antimicrobial additives in the end-use formulations, is the minimum level that is effective under the conditions of the Multiple Challenge Test.

The test system of data set [3] is Pseudomonas aeruginosa (Pa). Kind of data set: MIC in nutrient agar, Pseudomonas aeruginosa. The format is cell-based, Pseudomonas aeruginosa ATCC 10145. The procedure: as §1, §2, §3, §4, §5
The test system of data set [4] is mixture of the bacterial organisms listed in Table II. As to the kind of experiment: MEC in tape joint formulation after 3 months storage. The data set is classed as cell-based, bacteria listed in Table II. Conditions: 2190 h, pH between 5 and 7, after 3 months storage at room temperature. The method, then: as §6
(§7) The normal interpretation of the results is that a concentration of the antimicrobial being tested is considered to be effective if no ratings greater than a 3 are observed throughout the 10 challenges. […]

Data set [5] shares this test system. Kind of data set: MEC in paint formulation after 1 month storage. The format is cell-based, bacteria listed in Table II. The conditions noted are these: 730 h, pH between 7 and 9, after 1 month storage at room temperature. The method, then: as §6, §7
The nature of data set [6]: Stability of 3-thio-2-propynenitriles at pH 7 or above / in basic solution. Conditions: basic solution / pH of 7 or above. The data set is classed as physicochemical. From the text: It has also been discovered that the compounds of the present invention may degrade at a pH of 7 or above over an extended time period to compounds which are less antimicrobially active than the original compounds of the present invention.

The mark [7] stands for this setting: Bacillus subtilis, pH 6.8; read-out: Minimum Inhibitory Concentration, Bs.
The mark [8] stands for this setting: Bacillus subtilis, pH 8.2, read-out: Minimum Inhibitory Concentration, Bs.
The mark [9] stands for this setting: Bacillus subtilis, pH 6.8, read-out: Minimum Inhibitory Concentration, Bs.
Where [10] appears, read: Bacillus subtilis, pH 8.2; read-out: Minimum Inhibitory Concentration, Bs.
Where [11] appears, read: pH 8.2, read-out: Minimum Inhibitory Concentration, Pa.

Structures are written as SMILES. In brackets after ≈: the same amount, converted by molar mass. Like-named read-outs stand apart in the source and are kept apart here.

Regarding `CCSC#CC#N` [B, 3-ethylthio-2-propynenitrile], the MIC in data set [1] (setting [7]) and in data set [1] (setting [8]) was 25 µg/mL (≈ 225 µM) each time. Further, the MEC in data set [2] stood at 25 ppm.
Take `N#CC#CSC1CCCC1` [C, 3-cyclopentylthio-2-propynenitrile]: the MIC is 100 µg/mL (≈ 661 µM) in data set [1] (setting [9]) and 250 µg/mL (≈ 1650 µM) in data set [1] (setting [10]). The MEC in data set [2] was determined as 100 ppm.
As for `CSC#CC#N` [Compound A, 3-methylthio-2-propynenitrile], the MIC is 2.5 µg/mL (≈ 25.7 µM) in data set [1] (setting [7]), 5 µg/mL (≈ 51.5 µM) in data set [1] (setting [10]) and 2.5 µg/mL (≈ 25.7 µM) in data set [3] (setting [11]). Besides, the “Minimum Inhibitory Concentration, Bs” value in data set [1] (pH 8.2) turned out to be 5 ppm. Besides, the MEC in data set [2] is recorded as 10 ppm. For the same compound, the minimal effective concentration in data set [4] and in data set [5] was greater than 50 µg/mL each time. Moreover, the stability entry in data set [6] was “observed to decompose in a basic solution to several compounds”.
As to `CSC=C(Cl)C#N` [Compound G, 2-chloro-3-(methylthio)-2-propenenitrile], the MIC is 75 µg/mL (≈ 561 µM) in data set [1] (setting [9]); 10 µg/mL (≈ 74.8 µM) in data set [1] (setting [8]); 50 µg/mL (≈ 374 µM) in data set [3] (pH 6.8, read-out: Minimum Inhibitory Concentration, Pa); 5 µg/mL (≈ 37.4 µM) in data set [3] (setting [11]). In addition, the minimal effective concentration in data set [4] was greater than 50 µg/mL.
`N#CC#CSc1ccc(Cl)cc1` [D, 3-(4-chlorophenylthio)-2-propynenitrile]: the figures for the MIC in data set [1] (setting [7]) and in data set [1] (setting [10]) were less than 10 µg/mL and 50 µg/mL (≈ 258 µM), respectively. For the same compound, the MEC in data set [2] is 100 ppm.
